Experimental data published in patent US10221163B2 (priority 2015, dated 2019).
pIC50: −log10 of the molar value. Where two headings read alike, the source gives them in different places.

Assays:
[1] = system: Pseudomonas aeruginosa MB9798 vs MB9799; conditions: ratio MITC95 PA_9798/MITC95 PA_9799
Description: The strain background was Pseudomonas aeruginosa PAO1.
The strain set was then used as a pair to determine the effect of metallo-β-lactamase inhibitors of Formula I on the MIC of imipenem and/or ceftazidime. A fixed concentration of antibiotic was included in standard microbroth MIC tests, usually at the CLSI (Clinical and Laboratory Standards Institute) breakpoint concentration. A fixed amount of a class A/C beta-lactamase inhibitor was also included to inhibit the resident Pseudomonas AmpC enzyme. A serial titration of the metallo-β-lactamase inhibitor was included and the concentration of metallo-β-lactamase inhibitor which restores susceptibility of the strain to the included antibiotic was recorded. That concentration of metallo-β-lactamase inhibitor was then compared between the two strains to determine the fold difference between the efflux+ (MB9798) and efflux− (MB9799) strains. This was taken as an indication of the extent to which the MBLi is subject to efflux.

VIM-1 = VIM-1 (Pseudomonas aeruginosa (strain ATCC 15692 / DSM 22644 / CIP 104116 / JCM 14847 / LMG 12228 / 1C / PRS 101 / PAO1), UniProt A0A0F7KYQ8); experiment: biochemical; conditions: CCF2-FA substrate, 30 pM enzyme, 2 hours at 25° C.
Outline: (§1)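 Enzyme activity was measured by fluorescence using CCF2-FA, a cephalosporin-linked 7-hydroxycoumarin/fluorescein substrate, with inhibitor, metallo-β-lactamase and substrate incubated together for 2 hours at 25° C. IC50 came from a 4-parameter fit of inhibition versus log inhibitor concentration.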

[2] = system: Escherichia coli expressing NDM-1 (CLB30005, CLB30016); format: cell-based; conditions: with imipenem 1 μg/ml; 95% inhibition of bacterial growth
Outline: (§2)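 Growth by absorbance after 22–24 h at 35°C defined the read-out, with imipenem fixed at 1 μg/ml alongside compound. Inocula came from overnight blood-agar colonies at 35°C, resuspended in saline and diluted 1:100 in 1.1×CAMHB.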

[3] = system: Klebsiella pneumoniae expressing VIM-1 (IHMA599644); format: cell-based; conditions: with imipenem 1 μg/ml; 95% inhibition of bacterial growth
Outline: as §2

[4] = system: Serratia marcescens expressing IMP-1 (CL5741); format: cell-based; conditions: with imipenem 1 μg/ml; 95% inhibition of bacterial growth
Outline: as §2

[5] = system: Pseudomonas aeruginosa efflux− (MB9799), IMP-1; format: cell-based; conditions: concentration restoring susceptibility to imipenem at 2 μg/mL in the presence of a class A, C, D serine β-lactamase inhibitor closely related to relebactam
Outline: (§3)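 Microbroth MIC tests in PAO1-background strains with fixed imipenem and/or ceftazidime, usually at the CLSI breakpoint, plus fixed class A/C β-lactamase inhibitor against AmpC. MBL inhibitor titrated; concentration restoring susceptibility recorded and compared as fold difference between efflux+ MB9798 and efflux− MB9799.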

NDM-1 = NDM-1 (Klebsiella pneumoniae, UniProt C7C422); experiment: biochemical; format: biochemical; conditions: fluorescence assay, CCF2-FA substrate, 1 pM enzyme, 2 hours at 25° C.; read-out: NDM-1 IC50
Outline: as §1

IMP-1 = IMP-1 (Serratia marcescens, UniProt P52699); experiment: biochemical; format: biochemical; conditions: CCF2-FA substrate, 2 pM enzyme, 2 hours at 25° C.
Outline: as §1

[6] = system: Pseudomonas aeruginosa efflux+ (MB9798), IMP-1; format: cell-based; conditions: concentration restoring susceptibility to imipenem at 2 μg/mL in the presence of a class A, C, D serine β-lactamase inhibitor closely related to relebactam
Outline: as §3

[7] = fluorescence assay, read-out: VIM-1 IC50
[8] = fluorescence assay, read-out: IMP-1 IC50

Chain of IMP-1 (P52699 whole entry, looked up, species assumed): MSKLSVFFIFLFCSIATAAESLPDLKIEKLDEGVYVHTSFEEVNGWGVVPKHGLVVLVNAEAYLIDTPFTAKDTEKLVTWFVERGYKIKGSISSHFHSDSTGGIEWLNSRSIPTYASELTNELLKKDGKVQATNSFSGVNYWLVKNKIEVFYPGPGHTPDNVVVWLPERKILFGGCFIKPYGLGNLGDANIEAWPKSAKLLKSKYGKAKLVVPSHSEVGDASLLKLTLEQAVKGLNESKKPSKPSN
Chain of NDM-1 (C7C422 whole entry, looked up, species assumed): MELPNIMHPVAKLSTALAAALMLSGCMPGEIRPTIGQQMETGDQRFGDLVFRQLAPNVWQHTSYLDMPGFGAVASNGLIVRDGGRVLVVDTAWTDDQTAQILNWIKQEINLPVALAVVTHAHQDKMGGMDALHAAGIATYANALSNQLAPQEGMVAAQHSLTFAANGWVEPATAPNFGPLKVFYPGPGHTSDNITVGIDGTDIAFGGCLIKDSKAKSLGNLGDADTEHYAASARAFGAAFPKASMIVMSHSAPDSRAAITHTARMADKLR

SMILES	Efflux ratio [1]	pIC50 (VIM-1; [7])	Escherichia coli expressing NDM-1 (CLB30016) MITC95 [2] [µM]	Klebsiella pneumoniae expressing VIM-1 (IHMA599644) MITC95 [3] [µM]	Serratia marcescens expressing IMP-1 (CL5741) MITC95 [4] [µM]	P. aeruginosa expressing IMP-1, efflux − (MB9799) MITC95 [5] [µM]	pIC50 (NDM-1)	pIC50 (IMP-1; [8])	P. aeruginosa expressing IMP-1, efflux + (MB9798) MITC95 [6] [µM]	pIC50 (IMP-1; IMP-1 IC50, fluorescence assay)	pIC50 (VIM-1; VIM-1 IC50, fluorescence assay)
Nc1ccc2cccc(-c3ccc(S(N)(=O)=O)c(S(N)(=O)=O)c3-c3nn[nH]n3)c2n1 [Example 2, 4-(2-aminoquinolin-8-yl)-3-(2H-tetrazol-5-yl)benzene-1,2-disulfonamide]	1.00	9.34	0.7813	1.563	0.7813	0.7813	9.79	9.55	0.7813		
NS(=O)(=O)c1ccc(-c2cccc3cn[nH]c23)c(-c2nn[nH]n2)c1S(N)(=O)=O [Example 3, 4-(1H-indazol-7-yl)-3-(2H-tetrazol-5-yl)benzene-1,2-disulfonamide]	2.00	9.59	3.125	6.25	1.563	1.563	9.82	9.63	3.125		
Nc1nc2c(-c3ccc(S(N)(=O)=O)c(S(N)(=O)=O)c3-c3nn[nH]n3)cccc2o1 [Example 4, 4-(2-aminobenzo[d]oxazol-4-yl)-3-(2H-tetrazol-5-yl)benzene-1,2-disulfonamide]	1.00	9.63	3.125	3.125	1.563	1.563	9.87	9.45	1.563		
Cn1c(N)nc2c(-c3ccc(S(N)(=O)=O)c(S(N)(=O)=O)c3-c3nn[nH]n3)cccc21 [Example 5, 4-(2-amino-1-methyl-1H-benzo[d]imidazol-4-yl)-3-(2H-tetrazol-5-yl)benzene-1,2-disulfonamide]	2.00	9.84	0.25	1.781	0.8906	0.8906	9.71	9.46	1.781		
Cc1ccc(-c2ccc(S(N)(=O)=O)c(S(N)(=O)=O)c2-c2nn[nH]n2)c2nc(N)sc12 [Example 6, 4-(2-amino-7-methylbenzo[d]thiazol-4-yl)-3-(2H-tetrazol-5-yl)benzene-1,2-disulfonamide]	1.00	10.04	6.25	6.25	1.563	1.563	10.57	10.19	1.563		
CNS(=O)(=O)c1ccc(-c2cccc3cn[nH]c23)c(-c2nn[nH]n2)c1S(N)(=O)=O [Example 7, 4-(1H-indazol-7-yl)-N1-methyl-3-(2H-tetrazol-5-yl)benzene-1,2-disulfonamide]	15.99	9.96	6.25	6.25	3.125	1.563	10.00		25	9.67	
NS(=O)(=O)c1ccc(-c2cccc3[nH]c(C(=O)O)nc23)c(-c2nn[nH]n2)c1S(N)(=O)=O [Example 8, 4-(3,4-disulfamoyl-2-(2H-tetrazol-5-yl)phenyl)-1H-benzo[d]imidazole-2-carboxylic acid]	1.00	9.54	1.563	6.25	3.125	1.563	9.91	9.44	1.563		
NCCNS(=O)(=O)c1ccc(-c2cccc3cn[nH]c23)c(-c2nn[nH]n2)c1S(N)(=O)=O [Example 9, N^1-(2-aminoethyl)-4-(1H-indazol-7-yl)-3-(2H-tetrazol-5-yl)benzene-1,2-disulfonamide]	0.50	9.88	0.7813	1.563	1.563	0.7813	10.07	9.77	0.3906		
Cl.Cn1c(N)nc2c(-c3ccc(S(=O)(=O)NCCN)c(S(N)(=O)=O)c3-c3nn[nH]n3)cccc21 [Example 10, 4-(2-amino-1-methyl-1H-benzo[d]imidazol-4-yl)-N1-(2-aminoethyl)-3-(2H-tetrazol-5-yl)benzene-1,2-disulfonamide hydrochloride]	1.00	9.75	0.1875	1.531	0.6406	0.7656	10.05	9.63	0.7656		
NCCNS(=O)(=O)c1ccc(-c2cccc3[nH]c(N)nc23)c(-c2nn[nH]n2)c1S(N)(=O)=O [Example 12, 4-(2-amino-1H-benzo[d]imidazol-4-yl)-N^1-(2-aminoethyl)-3-(2H-tetrazol-5-yl)benzene-1,2-disulfonamide]	0.75		0.25	0.5703	0.6302	0.5	10.37	9.50	0.375		9.99
NCCNS(=O)(=O)c1ccc(-c2cccc3oc(C(=O)O)nc23)c(-c2nn[nH]n2)c1S(N)(=O)=O [Example 13, 4-(4-(N-(2-aminoethyl)sulfamoyl)-3-sulfamoyl-2-(2H-tetrazol-5-yl)phenyl)benzo[d]oxazole-2-carboxylic acid]	2.00	9.39	12.5	25	12.5	6.25	10.12	8.67	12.5		
Nc1nc2c(-c3ccc(S(=O)(=O)NC4CCS(=O)(=O)CC4)c(S(N)(=O)=O)c3-c3nnn[nH]3)cccc2s1 [Example 14, 4-(2-amino-1,3-benzothiazol-4-yl)-N1-(1,1-dioxidotetrahydro-2H-thiopyran-4-yl)-3-(1H-tetrazol-5-yl)benzene-1,2-disulfonamide]	1.00	9.75	12.5	12.5	3.125	3.125	10.59	9.76	3.125		
